Several values for one entry are separate records, joined by “and”; a condition that tells them apart may be missing. Equal entries are not always repeated.
Columns and labels:
Test in all cases: cells
[1] = tested on: HCC1954; type: functional, cell-based, Homo sapiens;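 also: growth inhibition of human HCC1954 cells, read out with a cell viability assay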
Description: SANGER: Inhibition of human HCC1954 cell growth in a cell viability assay.

[2] = tested on: CAPAN-1; type: functional, cell-based, Homo sapiens;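 also: growth suppression of CAPAN-1 cells, read out by a cell viability assay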
Description: SANGER: Inhibition of human CAPAN-1 cell growth in a cell viability assay.

[3] = tested on: MOLT-16; type: functional, cell-based; conditions: Homo sapiens;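 also: growth inhibition of human MOLT-16 cells, read out with a cell viability assay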
Description: SANGER: Inhibition of human MOLT-16 cell growth in a cell viability assay.

[4] = tested on: NCI-H292; type: functional, cell-based, Homo sapiens;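 also: growth inhibition of NCI-H292 cells, read out with a cell viability assay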
Description: SANGER: Inhibition of human NCI-H292 cell growth in a cell viability assay.

[5] = tested on: SN12C; type: functional, cell-based, Homo sapiens;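 also: growth inhibition of human SN12C cells, measured by a cell viability assay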
Description: SANGER: Inhibition of human SN12C cell growth in a cell viability assay.

[6] = tested on: L-363; type: functional, cell-based; conditions: Homo sapiens
Description: SANGER: Inhibition of human L-363 cell growth in a cell viability assay.

[7] = tested on: CAKI-1; type: functional, cell-based, Homo sapiens;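 also: growth inhibition of CAKI-1 cells, measured by a cell viability assay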
Description: SANGER: Inhibition of human CAKI-1 cell growth in a cell viability assay.

[8] = tested on: VA-ES-BJ; type: functional, cell-based, Homo sapiens;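 also: growth inhibition of the VA-ES-BJ cell line, read out by a cell viability assay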
Description: SANGER: Inhibition of human VA-ES-BJ cell growth in a cell viability assay.

[9] = tested on: MC-IXC; type: functional, cell-based, Homo sapiens;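 also: growth inhibition of MC-IXC cells, read out with a cell viability assay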
Description: SANGER: Inhibition of human MC-IXC cell growth in a cell viability assay.

[10] = tested on: NCI-H358; type: functional, cell-based, Homo sapiens;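 also: growth inhibition of NCI-H358 human cells, read out with a cell viability assay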
Description: SANGER: Inhibition of human NCI-H358 cell growth in a cell viability assay.

[11] = tested on: NCI-H1793; type: functional, cell-based, Homo sapiens;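 also: cell growth inhibition, read out by a cell viability assay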
Description: SANGER: Inhibition of human NCI-H1793 cell growth in a cell viability assay.

[12] = tested on: NY; type: functional, cell-based, Homo sapiens
Description: SANGER: Inhibition of human NY cell growth in a cell viability assay.

[13] = tested on: T84; type: functional, cell-based, Homo sapiens;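 also: growth inhibition measured with a cell viability readout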
Description: SANGER: Inhibition of human T84 cell growth in a cell viability assay.

[14] = tested on: TE-9; type: functional, cell-based, Homo sapiens;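 also: cell growth inhibition, measured with a cell viability readout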
Description: SANGER: Inhibition of human TE-9 cell growth in a cell viability assay.

[15] = tested on: NCI-H69; type: functional, cell-based; conditions: Homo sapiens;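 also: growth inhibition of the cell line, read out with a cell viability assay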
Description: SANGER: Inhibition of human NCI-H69 cell growth in a cell viability assay.

[16] = tested on: KU-19-19; type: functional, cell-based, Homo sapiens
Description: SANGER: Inhibition of human KU-19-19 cell growth in a cell viability assay.

[17] = tested on: Ca9-22; type: functional, cell-based, Homo sapiens;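 also: growth inhibition of Ca9-22 cells, read out with a cell viability assay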
Description: SANGER: Inhibition of human Ca9-22 cell growth in a cell viability assay.

[18] = tested on: PANC-03-27; type: functional, cell-based, Homo sapiens
Description: SANGER: Inhibition of human PANC-03-27 cell growth in a cell viability assay.

[19] = tested on: CWR22R; type: functional, cell-based, Homo sapiens;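 also: growth inhibition of 22Rv1 cells, read out with a cell viability assay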
Description: SANGER: Inhibition of human 22RV1 cell growth in a cell viability assay.

[20] = tested on: SNU-449; type: functional, cell-based, Homo sapiens
Description: SANGER: Inhibition of human SNU-449 cell growth in a cell viability assay.

[21] = tested on: KMOE-2; type: functional, cell-based; conditions: Homo sapiens;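 also: growth inhibition of human KMOE-2 cells, read out with a cell viability assay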
Description: SANGER: Inhibition of human KMOE-2 cell growth in a cell viability assay.

[22] = tested on: TGBC1TKB; type: functional, cell-based, Homo sapiens;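 also: growth inhibition of TGBC1TKB cells, read out by a cell viability assay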
Description: SANGER: Inhibition of human TGBC1TKB cell growth in a cell viability assay.

[23] = tested on: SK-LMS-1; type: functional, cell-based, Homo sapiens;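 also: growth inhibition of human SK-LMS-1 cells, read out with a cell viability assay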
Description: SANGER: Inhibition of human SK-LMS-1 cell growth in a cell viability assay.

[24] = tested on: KALS-1; type: functional, cell-based, Homo sapiens;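 also: growth inhibition of KALS-1 cells, determined with a cell viability assay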
Description: SANGER: Inhibition of human KALS-1 cell growth in a cell viability assay.

[25] = tested on: KS-1; type: functional, cell-based, Homo sapiens;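 also: growth inhibition of KS-1 cells, read out with a cell viability assay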
Description: SANGER: Inhibition of human KS-1 cell growth in a cell viability assay.

[26] = tested on: SBC-1; type: functional, cell-based; conditions: Homo sapiens;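 also: cell viability assay measuring growth inhibition of the SBC-1 cell line, IC50 being the concentration that halves growth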
Description: SANGER: Inhibition of human SBC-1 cell growth in a cell viability assay.

[27] = tested on: NCI-H1437; type: functional, cell-based, Homo sapiens;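 also: growth inhibition of human NCI-H1437 cells, read out by a cell viability assay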
Description: SANGER: Inhibition of human NCI-H1437 cell growth in a cell viability assay.

[28] = tested on: NCI-H1770; type: functional, cell-based; conditions: Homo sapiens;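 also: growth inhibition of NCI-H1770 cells determined with a viability readout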
Description: SANGER: Inhibition of human NCI-H1770 cell growth in a cell viability assay.

[29] = tested on: NCI-N87; type: functional, cell-based, Homo sapiens;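 also: growth inhibition of human NCI-N87 cells, read out with a cell viability assay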
Description: SANGER: Inhibition of human NCI-N87 cell growth in a cell viability assay.

[30] = tested on: KYSE-270; type: functional, cell-based, Homo sapiens;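 also: cell growth inhibition measured with a viability assay in the human KYSE-270 line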
Description: SANGER: Inhibition of human KYSE-270 cell growth in a cell viability assay.

[31] = tested on: RVH-421; type: functional, cell-based, Homo sapiens
Description: SANGER: Inhibition of human RVH-421 cell growth in a cell viability assay.

[32] = tested on: MZ7-mel; type: functional, cell-based, Homo sapiens;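 also: growth inhibition of human MZ7-mel cells, measured by a cell viability assay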
Description: SANGER: Inhibition of human MZ7-mel cell growth in a cell viability assay.

[33] = tested on: MHH-NB-11; type: functional, cell-based, Homo sapiens;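 also: growth inhibition of human MHH-NB-11 cells, read out by a cell viability assay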
Description: SANGER: Inhibition of human MHH-NB-11 cell growth in a cell viability assay.

[34] = tested on: MIA PaCa-2; type: functional, cell-based, Homo sapiens;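 also: growth inhibition of MIA PaCa-2 cells, read out with a cell viability assay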
Description: SANGER: Inhibition of human MIA-PaCa-2 cell growth in a cell viability assay.

[35] = tested on: JVM-3; type: functional, cell-based; conditions: Homo sapiens;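 also: growth inhibition of human JVM-3 cells, read out with a cell viability assay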
Description: SANGER: Inhibition of human JVM-3 cell growth in a cell viability assay.

[36] = tested on: CAL-85-1; type: functional, cell-based; conditions: Homo sapiens;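 also: growth inhibition of human CAL-85-1 cells, read out with a cell viability assay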
Description: SANGER: Inhibition of human CAL-85-1 cell growth in a cell viability assay.

[37] = tested on: NCI-H1623; type: functional, cell-based, Homo sapiens;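 also: cell viability assay used as the read-out for growth inhibition of NCI-H1623 cells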
Description: SANGER: Inhibition of human NCI-H1623 cell growth in a cell viability assay.

[38] = tested on: HT-1080; type: functional, cell-based, Homo sapiens
Description: SANGER: Inhibition of human HT-1080 cell growth in a cell viability assay.

[39] = tested on: MEL-HO; type: functional, cell-based, Homo sapiens
Description: SANGER: Inhibition of human MEL-HO cell growth in a cell viability assay.

[40] = tested on: D-502MG; type: functional, cell-based, Homo sapiens
Description: SANGER: Inhibition of human D-502MG cell growth in a cell viability assay.

[41] = tested on: GI-ME-N; type: functional, cell-based, Homo sapiens;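 also: growth inhibition of human GI-ME-N cells, read out with a cell viability assay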
Description: SANGER: Inhibition of human GI-ME-N cell growth in a cell viability assay.

[42] = tested on: KP-N-YN; type: functional, cell-based; conditions: Homo sapiens;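 also: growth inhibition of KP-N-YN cells, read out with a cell viability assay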
Description: SANGER: Inhibition of human KP-N-YN cell growth in a cell viability assay.

[43] = tested on: OE33; type: functional, cell-based, Homo sapiens;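 also: growth inhibition of human OE33 cells, measured by a cell viability assay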
Description: SANGER: Inhibition of human OE33 cell growth in a cell viability assay.

[44] = tested on: UACC-257; type: functional, cell-based, Homo sapiens
Description: SANGER: Inhibition of human UACC-257 cell growth in a cell viability assay.

[45] = tested on: SK-HEP1; type: functional, cell-based, Homo sapiens, SK-HEP-1;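 also: cell viability readout used to quantify reduction in proliferation of human SK-HEP-1 cells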
Description: SANGER: Inhibition of human SK-HEP-1 cell growth in a cell viability assay.

[46] = tested on: 639-V; type: functional, cell-based, Homo sapiens;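 also: growth inhibition of 639-V cells, read out with a cell viability assay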
Description: SANGER: Inhibition of human 639-V cell growth in a cell viability assay.

[47] = tested on: SW1990; type: functional, cell-based, Homo sapiens;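 also: cell growth inhibition determined with a viability assay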
Description: SANGER: Inhibition of human SW1990 cell growth in a cell viability assay.

[48] = tested on: HCC1806; type: functional, cell-based, Homo sapiens;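 also: growth inhibition of the cancer cell line, determined with a cell viability assay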
Description: SANGER: Inhibition of human HCC1806 cell growth in a cell viability assay.

[49] = tested on: D-542MG; type: functional, cell-based, Homo sapiens
Description: SANGER: Inhibition of human D-542MG cell growth in a cell viability assay.

[50] = tested on: SK-MEL3; type: functional, cell-based, Homo sapiens, SK-MEL-3;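 also: growth inhibition of human SK-MEL-3 cells, read out with a cell viability assay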
Description: SANGER: Inhibition of human SK-MEL-3 cell growth in a cell viability assay.

Measured: IC50

Nc1ccn([C@@H]2O[C@H](CO)[C@@H](O)[C@@H]2O)c(=O)n1 [CYTARABINE]
41.4 nM: [9]; Homo sapiens, MC-IXC
1340 nM: [6]
120 nM: [7]; Homo sapiens, CAKI-1
> 2000 nM: [1]; Homo sapiens, HCC1954 | [2]; Homo sapiens, CAPAN-1 | [10]; Homo sapiens, NCI-H358 | [11]; Homo sapiens, NCI-H1793 | [12]; Homo sapiens, NY | [13]; Homo sapiens, T84 | [15] | [16]; Homo sapiens, KU-19-19 | [19]; Homo sapiens, 22Rv1 | [20]; Homo sapiens, SNU-449 | [22]; Homo sapiens, TGBC1TKB | [23]; Homo sapiens, SK-LMS-1 | [24]; Homo sapiens, KALS-1 | [25]; Homo sapiens, KS-1 | [26] | [28] | [29]; Homo sapiens, NCI-N87 | [31]; Homo sapiens, RVH-421 | [36] | [39]; Homo sapiens, MEL-HO | [40]; Homo sapiens, D-502MG | [42] | [44]; Homo sapiens, UACC-257 | [46]; Homo sapiens, 639-V | [47]; Homo sapiens, SW1990 | [49]; Homo sapiens, D-542MG | [50]; Homo sapiens, SK-MEL3
897 nM: [18]; Homo sapiens, PANC-03-27
944 nM: [21]
321 nM: [17]; Homo sapiens, Ca9-22
114 nM: [4]; Homo sapiens, NCI-H292 | [38]; Homo sapiens, HT-1080
798 nM: [27]; Homo sapiens, NCI-H1437
536 nM: [37]; Homo sapiens, NCI-H1623
849 nM: [30]; Homo sapiens, KYSE-270
556 nM: [45]; Homo sapiens, SK-HEP1
417 nM: [32]; Homo sapiens, MZ7-mel
71.7 nM: [8]; Homo sapiens, VA-ES-BJ
1450 nM: [35]
191 nM: [48]; Homo sapiens, HCC1806
1490 nM: [34]; Homo sapiens, MIA PaCa-2
1660 nM: [41]; Homo sapiens, GI-ME-N
623 nM: [5]; Homo sapiens, SN12C
728 nM: [33]; Homo sapiens, MHH-NB-11
1790 nM: [14]; Homo sapiens, TE-9
36.1 nM: [3]
1800 nM: [43]; Homo sapiens, OE33

Cc1cc([C@@H](C)Nc2ccccc2C(=O)O)c2nc(N3CCOCC3)cc(=O)n2c1 [AZD-6482]
3170 nM: [7]; Homo sapiens, CAKI-1
> 5120 nM: [1]; hcc1954 | [2]; capan-1 | [5]; sn12c | [6] | [8]; Homo sapiens, VA-ES-BJ | [8]; va-es-bj | [9]; Homo sapiens, MC-IXC | [9]; mc-ixc | [10]; nci-h358 | [11]; nci-h1793 | [12]; Homo sapiens, NY | [12]; ny | [13]; t84 | [14]; te-9 | [15] | [16]; ku-19-19 | [17]; ca9-22 | [18]; Homo sapiens, PANC-03-27 | [19]; Homo sapiens, 22Rv1 | [19]; cwr22r | [20]; Homo sapiens, SNU-449 | [20]; snu-449 | [21] | [22]; tgbc1tkb | [24]; kals-1 | [25]; Homo sapiens, KS-1 | [25]; ks-1 | [26] | [27]; nci-h1437 | [28] | [29]; nci-n87 | [30]; kyse-270 | [31]; rvh-421 | [32]; Homo sapiens, MZ7-mel | [32]; mz7-mel | [33]; mhh-nb-11 | [34]; mia paca-2 | [35] | [38]; ht-1080 | [40]; d-502mg | [41]; gi-me-n | [42] | [43]; oe33 | [44]; Homo sapiens, UACC-257 | [44]; uacc-257 | [45]; Homo sapiens, SK-HEP1 | [45]; sk-hep-1 | [47]; sw1990 | [48]; hcc1806 | [50]; Homo sapiens, SK-MEL3 | [50]; sk-mel-3
4350 nM: [24]; Homo sapiens, KALS-1
4710 nM: [7]; caki-1
> 5120 nM and 3130 nM: [37]; nci-h1623
1850 nM and > 5120 nM: [49]; d-542mg
2280 nM: [36]
3070 nM: [23]; Homo sapiens, SK-LMS-1
4330 nM: [3]
1630 nM and 4780 nM: [46]; 639-v
4620 nM: [23]; sk-lms-1
3650 nM and 1560 nM: [4]; nci-h292
1240 nM and > 5120 nM: [39]; mel-ho
5060 nM: [1]; Homo sapiens, HCC1954
4400 nM: [18]; panc-03-27

— ChEMBL document CHEMBL1201861, “Genomics of Drug Sensitity in Cancer screening data, Wellcome Trust Sanger Institute”
